This is an account of results in patent publication US20170253601A1, “Substituted Pyrrolidine Compounds” (EPIZYME, INC., priority 2014, published 2017).

A word on the IC50: it is the concentration that inhibits the measured activity by half.

Structures are written as SMILES.

The target in this test is T1, SMYD2 (Homo sapiens, UniProt Q9NRG4).
T1 construct: Full length SMYD2 (NP 064582.2) was cloned; His6 (N, cleaved yes); FLAG (N); made in house; host or cells: Sf9 insect cells
T1 sequence (Q9NRG4 whole entry): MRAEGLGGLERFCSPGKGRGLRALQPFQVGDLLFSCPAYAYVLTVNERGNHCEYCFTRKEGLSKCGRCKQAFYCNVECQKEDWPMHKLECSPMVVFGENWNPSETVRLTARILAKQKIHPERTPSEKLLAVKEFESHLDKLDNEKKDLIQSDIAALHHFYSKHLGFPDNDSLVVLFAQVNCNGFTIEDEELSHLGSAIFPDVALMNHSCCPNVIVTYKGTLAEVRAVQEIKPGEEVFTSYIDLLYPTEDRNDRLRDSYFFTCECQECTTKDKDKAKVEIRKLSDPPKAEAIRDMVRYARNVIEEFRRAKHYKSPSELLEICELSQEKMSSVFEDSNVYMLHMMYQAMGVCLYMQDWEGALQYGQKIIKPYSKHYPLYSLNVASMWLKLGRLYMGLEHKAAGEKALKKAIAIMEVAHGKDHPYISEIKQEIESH
In words: SMYD2 Biochemical Assay (3H-SAM, biotinylated peptide substrate, Flashplate). The conditions noted are these: Table 1; average of n = 1 to n = 50; read-out: SMYD2 Biochem IC50. The procedure, abridged: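 Methyltransferase activity tracked as 3H transfer from 10 nM 3H-SAM to 60 nM biotinylated peptide, counted after streptavidin Flashplate capture and normalised to DMSO and 1000 uM SAH controls. Enzyme: 1.5 nM full-length Sf9-expressed SMYD2, 30 min compound pre-incubation at room temperature, in Bicine pH 7.6 buffer with 2% DMSO; reactions quenched with 600 uM unlabelled SAM; IC50 from 3- or 4-parameter fit.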
`CC(C)N1CCC(NC(=O)c2cc(C3CC3)on2)C1c1ccc(F)c(F)c1` (centres unmarked) [compound 12, 5-cyclopropyl-N-(2-(3,4-difluorophenyl)-1-isopropylpyrrolidin-3-yl)isoxazole-3-carboxamide]: the IC50 is more than 50 µM.

On to `CN1C(=O)CC(NC(=O)c2cc(C3CC3)on2)C1c1ccc(F)cc1` (centres unmarked) [compound 14, 5-cyclopropyl-N-(2-(4-fluorophenyl)-1-methyl-5-oxopyrrolidin-3-yl)isoxazole-3-carboxamide], for which the IC50 is more than 50 µM.

On to `C[C@@H]1C[C@H](NC(=O)c2cc(C3CC3)on2)C(=O)N1c1cnn(C)c1` (racemic) [compound 19, (±)-cis-5-cyclopropyl-N-(5-methyl-1-(1-methyl-1H-pyrazol-4-yl)-2-oxopyrrolidin-3-yl)isoxazole-3-carboxamide], for which the IC50 is more than 50 µM.

In the case of `O=C(NC1CCN(c2ccccc2)C1=O)c1cc(C2CC2)on1` (centres unmarked) [compound 28, 5-cyclopropyl-N-(2-oxo-1-phenyl-pyrrolidin-3-yl)isoxazole-3-carboxamide], the IC50 is more than 50 µM.

As to `Cc1cc(N2CCC(NC(=O)c3cc(C4CC4)on3)C2=O)n(C)n1` (centres unmarked) [compound 6, 5-cyclopropyl-N-(1-(1,3-dimethyl-1H-pyrazol-5-yl)-2-oxopyrrolidin-3-yl)isoxazole-3-carboxamide], the IC50 is more than 50 µM.

In the case of `O=C(NC1CCN(C2CC2)C1c1ccc(F)c(F)c1)c1cc(C2CC2)on1` (centres unmarked) [compound 8, 5-cyclopropyl-N-(1-cyclopropyl-2-(3,4-difluoro-phenyl)pyrrolidin-3-yl)isoxazole-3-carboxamide], the half-inhibitory concentration (IC50) is more than 50 µM.

On to `CN1CCC(NC(=O)c2cc(C3CC3)on2)C1c1ccc(Cl)c(F)c1` (centres unmarked) [compound 7, N-(2-(4-chloro-3-fluorophenyl)-1-methylpyrrolidin-3-yl)-5-cyclo-propylisoxazole-3-carboxamide], for which the IC50 was more than 50 µM.

As for `CC1CC(NC(=O)c2cc(C3CC3)on2)CN1Cc1ccccc1` (centres unmarked) [compound 21, N-(1-benzyl-5-methylpyrrolidin-3-yl)-5-cyclopropyl-isoxazole-3-carboxamide], the IC50 was found to be 44.5 µM.

Regarding `N[C@H]1CC[C@H](C(=O)N2CC[C@@H](NC(=O)c3cc(C4CC4)on3)C2)CC1` [compound 31, N-((R)-1-((1r,4r)-4-aminocyclohexane-1-carbonyl)pyrrolidin-3-yl)-5-cyclopropyl-isoxazole-3-carboxamide], the IC50 was more than 50 µM.

As for `Cn1ccc(N2CCC(NC(=O)c3cc(C4CC4)on3)C2=O)n1` (centres unmarked) [compound 15, 5-cyclopropyl-N-(1-(1-methyl-1H-pyrazol-3-yl)-2-oxopyrrolidin-3-yl)isoxazole-3-carboxamide], the IC50 is more than 50 µM.

`CC1CC(NC(=O)c2cc(C3CC3)on2)CN1C1CC1` (centres unmarked) [compound 22, 5-cyclopropyl-N-(1-cyclopropyl-5-methylpyrrolidin-3-yl)isoxazole-3-carboxamide]: the IC50 is more than 50 µM.

On to `O=C(NC1CC(=O)N(c2ccccc2)C1)c1cc(C2CC2)on1` (centres unmarked) [compound 25, 5-cyclopropyl-N-(5-oxo-1-phenylpyrrolidin-3-yl)isoxazole-3-carboxamide], for which the half-maximal inhibitory concentration (IC50) is more than 50 µM.

Take `O=C(N[C@H]1CCNC1)c1cc(C2CC2)on1` [compound 3, (S)-5-cyclopropyl-N-(pyrrolidin-3-yl)isoxazole-3-carboxamide]: the IC50 stood at 48.6 µM.

For `CN1C[C@H](NC(=O)c2cc(C3CC3)on2)[C@H](c2ccccc2)C1` (racemic) [compound 17, (±)-cis-5-cyclopropyl-N-((1-methyl-4-phenylpyrrolidin-3-yl)isoxazole-3-carboxamide], the half-inhibitory concentration (IC50) was more than 50 µM.

Regarding `O=C(NC1CCN(Cc2ccccc2)C1=O)c1cc(C2CC2)on1` (centres unmarked) [compound 27, N-(1-benzyl-2-oxopyrrolidin-3-yl)-5-cyclopropylisoxazole-3-carboxamide], the IC50 was more than 50 µM.

On to `CC(c1ccccc1)N1CCC(NC(=O)c2cc(C3CC3)on2)C1` (centres unmarked) [compound 24, 5-cyclopropyl-N-(1-(1-phenylethyl)pyrrolidin-3-yl)isoxazole-3-carboxamide], for which the IC50 was more than 50 µM.

As for `CC1CC(NC(=O)c2cc(C3CC3)on2)CN1c1ccccc1` (centres unmarked) [compound 10, 5-cyclopropyl-N-(5-methyl-1-phenylpyrrolidin-3-yl)isoxazole-3-carboxamide], the IC50 is more than 50 µM.

As for `CC1CN(C2CC2)CC1NC(=O)c1cc(C2CC2)on1` (centres unmarked) [compound 23, 5-cyclopropyl-N-(1-cyclopropyl-4-methylpyrrolidin-3-yl)isoxazole-3-carboxamide], the 50% inhibitory concentration (IC50) is 5.18 µM.

In the case of `CC1CC(NC(=O)c2cc(C3CC3)on2)C(=O)N1c1ccccc1` (centres unmarked) [compound 11, 5-cyclopropyl-N-(5-methyl-2-oxo-1-phenylpyrrolidin-3-yl)isoxazole-3-carboxamide], the IC50 was more than 50 µM.

Take `CN1C[C@H](NC(=O)c2cc(C3CC3)on2)[C@@H](c2ccccc2)C1` (racemic) [compound 18, (±)-trans-5-cyclopropyl-N-(1-methyl-4-phenylpyrrolidin-3-yl)isoxazole-3-carboxamide]: the IC50 is more than 50 µM.

Turning to `CN1CCC(NC(=O)c2cc(C3CC3)on2)C1c1ccc(F)c(F)c1` (centres unmarked) [compound 9, 5-cyclopropyl-N-(2-(3,4-difluorophenyl)-1-methylpyrrolidin-3-yl)isoxazole-3-carboxamide], the IC50 is more than 50 µM.

Turning to `NCCCS(=O)(=O)N1CC[C@@H](NC(=O)c2cc(C3CC3)on2)C1` [compound 34, (R)-N-(1-((3-amino-propyl)sulfonyl)pyrrolidin-3-yl)-5-cyclopropyl-isoxazole-3-carboxamide], the half-inhibitory concentration (IC50) was more than 50 µM.

Turning to `CN1CCC(NC(=O)c2cc(C3CC3)on2)C1c1ccc(F)cc1` (centres unmarked) [compound 13, 5-cyclopropyl-N-(2-(4-fluorophenyl)-1-methylpyrrolidin-3-yl)isoxazole-3-carboxamide], the half-maximal inhibitory concentration (IC50) was more than 50 µM.

As for `C[C@H]1C[C@H](NC(=O)c2cc(C3CC3)on2)C(=O)N1c1cnn(C)c1` (racemic) [compound 20, (±)-trans 5-cyclopropyl-N-(5-methyl-1-(1-methyl-1H-pyrazol-4-yl)-2-oxopyrrolidin-3-yl)isoxazole-3-carboxamide], the 50% inhibitory concentration (IC50) was more than 50 µM.

Turning to `CN1CCC(NC(=O)c2cc(C3CC3)on2)C1` (centres unmarked) [compound 29, 5-cyclopropyl-N-(1-methylpyrrolidin-3-yl)isoxazole-3-carboxamide], the IC50 is more than 50 µM.

Regarding `O=C(N[C@@H]1CCNC1)c1cc(C2CC2)on1` [compound 4, (R)-5-cyclopropyl-N-(pyrrolidin-3-yl)isoxazole-3-carboxamide], the 50% inhibitory concentration (IC50) is more than 50 µM.

With `N[C@H]1CC[C@H](C(=O)N2CC[C@H](NC(=O)c3cc(C4CC4)on3)C2)CC1` [compound 33, N-((S)-1-((1r,4s)-4-aminocyclohexane-1-carbonyl)pyrrolidin-3-yl)-5-cyclopropyl-isoxazole-3-carboxamide], the half-inhibitory concentration (IC50) was more than 50 µM.

Take `NCCCC(=O)N1CC[C@@H](NC(=O)c2cc(C3CC3)on2)C1` [compound 30, (R)-N-(1-(4-amino-butanoyl)pyrrolidin-3-yl)-5-cyclopropyl-isoxazole-3-carboxamide]: the half-maximal inhibitory concentration (IC50) is more than 50 µM.

Take `NCCCC(=O)N1CC[C@H](NC(=O)c2cc(C3CC3)on2)C1` [compound 32, (S)-N-(1-(4-amino-butanoyl)pyrrolidin-3-yl)-5-cyclopropyl-isoxazole-3-carboxamide]: the half-inhibitory concentration (IC50) is more than 50 µM.

Consider `COc1cccc(C2C(NC(=O)c3cc(C4CC4)on3)CCN2C2CC2)c1` (centres unmarked) [compound 16, 5-cyclopropyl-N-(1-cyclopropyl-2-(3-methoxy-phenyl)pyrrolidin-3-yl)isoxazole-3-carboxamide], for which the IC50 was more than 50 µM.

For `O=C(NC1CC(=O)N(Cc2ccccc2)C1)c1cc(C2CC2)on1` (centres unmarked) [compound 26, N-(1-benzyl-5-oxopyrrolidin-3-yl)-5-cyclopropylisoxazole-3-carboxamide], the 50% inhibitory concentration (IC50) was more than 50 µM.

As for `CC(=O)Nc1ccc(S(=O)(=O)N2CC[C@@H](NC(=O)c3cc(C4CC4)on3)C2)cc1` [compound 2, (R)-N-(1-((4-acetamido-phenyl)sulfonyl)pyrrolidin-3-yl)-5-cyclopropyl-isoxazole-3-carboxamide], the half-inhibitory concentration (IC50) is more than 50 µM.

With `NCCCS(=O)(=O)N1CC[C@H](NC(=O)c2cc(C3CC3)on2)C1` [compound 35, (S)-N-(1-((3-amino-propyl)sulfonyl)pyrrolidin-3-yl)-5-cyclopropyl-isoxazole-3-carboxamide], the IC50 is more than 50 µM.

As to `CC(=O)Nc1ccc(S(=O)(=O)N2CC[C@H](NC(=O)c3cc(C4CC4)on3)C2)cc1` [compound 1, (S)-N-(1-((4-acetamido-phenyl)sulfonyl)pyrrolidin-3-yl)-5-cyclopropyl-isoxazole-3-carboxamide], the IC50 was more than 50 µM.

Regarding `CN1CCC(NC(=O)c2cc(C3CC3)on2)C1c1ccccc1` (centres unmarked) [compound 5, 5-cyclopropyl-N-(1-methyl-2-phenyl-pyrrolidin-3-yl)isoxazole-3-carboxamide], the IC50 was more than 50 µM.
